Source: patent publication US4973593A, “Novel compounds for the treatment of hypertension” (Research Corporation Technologies, Inc., priority 1987, dated 1990)

Assays:
nigrostriatal projection = test: Rotation Assay (circling behavior, 6-hydroxydopamine unilateral denervation of the nigrostriatal projection); assay type: in vivo, Male Sprague-Dawley rats; settings: for antagonism of apomorphine-induced rotations in rats: apomorphine 0.25 mg/kg, compound 4.0 mg/kg; for rotational behavior in rats with unilateral lesions of the nigrostriatal projection: dose 4.0 mg/kg
Protocol: Male Sprague-Dawley rats with 6-hydroxydopamine unilateral denervation of the nigrostriatal projection were used to test compounds for circling behavior according to the procedure of Cannon, et al. in J. Med. Chem 1984, 27, 186. Compounds were administered at a dose of 4.0 mg/kg and were also evaluated for their ability to antagonize apomorphine (0.25 mg/kg) induced rotations.
Finally, the compounds 11, 15, and 18 were evaluated for in vivo rat rotation assay.

[1] = test system: cat cardioaccelerator nerve; test: Cat Cardioaccelerator Nerve Assay (in vivo peripheral dopamine agonist activity); settings: for % inhibn of nerve stimulation: N=3; for peripheral dopamine agonist activity: in vivo, summary of Table I
Protocol: Cats were anesthetized by injection of pentobarbital sodium (30 mg/kg) into the thoracic cavity, and the surgical and experimental procedure was according to the procedure described in Cannon, J. G., et al. in J. Med. Chem. 1984, 27, 186. Experimental compounds were administered intravenously in doses of 0.33 log intervals.
The compounds 11, 15, and 18 were evaluated for in vivo dopamine agonist activity in the cat cardioaccelerator nerve assay.

dopamine receptor = test: Dopamine Receptor Binding Studies ([^3 H]spiroperidol displacement, rat striatal tissue); settings: [^3 H]spiroperidol 2 nM
Protocol: A method of Seeman, et al., Proc. Natl. Acad. Sci. U.S.A., 1975, 72, 4376, was employed using [^3 H]spiroperidol (2 nM) and rat striatal tissue.
Compound 11 was also evaluated for its ability to displace [^3 H] spiroperidol (2nm) from rat striatal tissue.

SMILES	antagonism of apomorphine-induced rotations in rats (nigrostriatal projection)	rotational behavior in rats with unilateral lesions of the nigrostriatal projection (nigrostriatal projection)	arterial pressure ([1]; dose 3.5, iv)	heart rate ([1]; dose 3.5, iv)	% inhibn of nerve stimulation ([1]; dose 3.5, iv) [%]	peripheral dopamine agonist activity [1]	ability to displace [^3 H]spiroperidol from rat striatal tissue (dopamine receptor)	% inhibn of nerve stimulation ([1]; dose 0.035, iv) [%]	% inhibn of nerve stimulation ([1]; dose 0.105, iv) [%]	% inhibn of nerve stimulation ([1]; dose 0.315, iv) [%]	% inhibn of nerve stimulation ([1]; dose 0.46, iv) [%]	heart rate ([1]; dose 1.38, iv)	% inhibn of nerve stimulation ([1]; dose 1.38, iv) [%]	arterial pressure ([1]; dose 4.60, iv)	% inhibn of nerve stimulation ([1]; dose 4.60, iv) [%]
CN1CCCC2(OCCO2)C1Cc1c[nH]c2ccccc12 (stereo not drawn) [Compound 15, 6-(3-Indolylmethyl)-7-methyl-1,4-dioxa-7-azaspiro[4.5]decane]	nor did they antagonize apomorphine-induced rotations	None of the compounds screened produced rotational behavior	Increased arterial pressure at this dose	Increased heart rate slightly at this dose	32 ± 17.4	effective agonist activity	–	–	–	–	–	–	–	–	–
CN1CCCC2(OCCO2)C1Cc1cccc2[nH]ccc12 (stereo not drawn) [Compound 11, 6-(4-Indolylmethyl)-7-methyl-1,4-dioxa-7-azaspiro[4.5]decane]	nor did they antagonize apomorphine-induced rotations	None of the compounds screened produced rotational behavior	–	–	–	effective agonist activity	inactive	26 ± 19	48 ± 21	79 ± 11	–	–	–	–	–
CN1CCCC2(OCCO2)C1Cc1ccccc1 (stereo not drawn) [Compound 18, 6-Benzyl-7-methyl-1,4-dioxa-7-azaspiro[4.5]decane]	nor did they antagonize apomorphine-induced rotations	None of the compounds screened produced rotational behavior	–	–	–	effective agonist activity	–	–	–	–	22 ± 11.7	Increased heart rate slightly at this dose	18 ± 2.0	Increased arterial pressure at this dose	36 ± 12.3
